From patent publication US20260028404A1 (UNIVERSITY OF KANSAS, priority 2022, published 2026)
Entries after “also recorded” stand apart in the source; their conditions may differ.

Key:
[1] = biological target: Ki-67; assay: Ki-67 IHC of pre- and post-treatment tumor specimens; format: in vivo, human; conditions: for Ki67 results, biopsy: before treatment
Protocol: Ki-67 and Caspase-3 levels: To potentially detect an early signal for anti-tumoral efficacy of Copaxone® treatment, changes in the level of Ki-67 and caspase-3 before and after treatment with Copaxone® were evaluated by IHC. FFPE tumor sections from pre-and post-treatment specimens were mounted on the same slide and stained using Caspase 3 (Biocare, Pacheco, CA) and Ki-67 (MIB-1) (Dako, Carpinteria, CA).

[2] = test system: differentially expressed genes; assay: RNAseq differential gene expression, pre vs post treatment tumor; format: in vivo, human
Protocol: RNASeq Analysis: A cutoff linear fold-change of 4 was used to select for the differentially expressed genes in each patient. Gene ontology (GO) of the biological process, functional annotation clustering, and Kyoto Encyclopedia of Genes and Genomes (KEGG) pathway analysis of the differentially expressed genes was performed using Database for Annotation, Visualization, and Integrated Discovery (DAVID) v2021^7,8.
Immune biomarkers were assessed in tumor biopsies and compared with those in the resected tumors after treatment. Conventional RNA sequencing and a geographical sequencing platform (GeoMx) were used to assess immune markers at the transcriptional level. In the RNA-Seq gene expression analysis, genes were filtered for differentially expressed genes (|FC|<4) between pre-and post-samples for three patients.

[3] = test system: AT84 tumors; assay: AT84 orthotopic head and neck tumor study; format: in vivo, C3H mice; conditions: intratumoral 300 μg GA, 75 μg CpG or R4 every three days x5; anti-PD-1 250 μg i.p. every three days
Description: AT84 cells were derived from a spontaneous sarcomatoid carcinoma in the oral mucosa of a C3H mouse and were graciously donated by Aldo Venuti (Regina Elena National Cancer Institute, Rome, Italy). Cells tested negative for interspecies contamination (Idexx BioResearch) and rodent pathogens (21 pathogen IMPACT I PCR profile), and negative for Mycoplasm contamination prior to animal studies (Lonza, MycoAlert test kit). Idexx CellCheck STR (short tandem repeat) profile: MCA-4-2: 20.3, 21.3; MCA-5-5: 15; MCA-6-4: 18, 19; MCA-6-7: 12; MCA-9-2: 15; MCA-12-1: 16; MCA-15-3: 25.3, 26.3; MCA-18-3: 16; MCA-X-1: 26, 27.
4% mannitol was prepared by dissolving D-mannitol (Fisher BioReagents® #M120, Fair Lawn, NJ) in molecular biology grade water (Corning #46-000, Manassas, VA) and sterile filtered through a 0.22 μm PES membrane filter (Millex®-GP #SLGPR33RS, Merck Millipore Ltd., Tullagreen, Carrigtwohill). 1 ml syringe stocks of 20 mg/mL GA (Copaxone®, TEVA Neuroscience, Inc., Overland Park, KS) were donated by The University of Kansas Medical Center. CpG ODN 1826 was purchased from InvivoGen (#tlrl-1826, San Diego, CA) and was resuspended in LAL water to obtain 3.17 mg/mL (500 μM) stocks following manufacture's protocol. All subsequent dilutions were performed using 4% mannitol. R4 polyplexes were prepared as previously described (Pressnall et al). […]

[4] = test system: CT26wt tumors; assay: Example 6 syngeneic CT26wt model with anti-mPD-L1; format: in vivo, BALB/c mice; conditions: of 8 animals on Day 0
Protocol: FIG. 14. […] Female BALB/c mice were implanted with CT26wt tumor cells into the mammary fat pad on Day 0 and were treated as depicted in the figure legends. […] The number of animals alive on Days 0 (implantation) and 45 (study termination), are shown for each group in parenthesis.
Each experimental group contained eight female BALB/c mice after randomization. On Day 0, 0.5×10^6 CT26wt murine colon adenocarcinoma tumor cells in 100 μl PBS were implanted into the left mammary fat pad of each mouse.
After animals had been randomized on Day 6, treatments were initiated on the same day. […] All groups were evaluated versus the Control, which were animals that had been treated with 25 μl/mouse Vehicle Control (4% mannitol) i.t. in combination with 10 mg/kg Isotype Control i.p.
During the course of the study, individual animals were either euthanized prior to study end without performing a necropsy, after they had reached humane endpoint, or were found dead. On Day 45, the study was terminated and all remaining animals were euthanized without performing a necropsy.

[5] = test system: AT84 model; conditions: low-dose GA (300 μg) alone, previous study; cited from earlier work
[6] = in vitro; cited from earlier work
[7] = mouse, in vivo; cited from earlier work

Glatiramer acetate [GA]
Ki67 results, treated ([1]; patient BCCa-Left Nasal Ala, after 2 Copaxone injections): 60%
Ki67 results, biopsy ([1]; patient BCCa-Left Nasal Ala): 65%
Ki67 results, treated ([1]; patient BCCa-Right Flank, after 3 Copaxone injections): 44%
Ki67 results, biopsy ([1]; patient BCCa-Right Flank): 62%
Ki67 results, treated ([1]; patient BCCa-Right Post. Neck, after 2 Copaxone injections): 45%
Ki67 results, biopsy ([1]; patient BCCa-Right Post. Neck): 70%
Ki67 results, treated ([1]; patient SCCa-Right Cheek, after 1 Copaxone injection): 45%
Ki67 results, biopsy ([1]; patient SCCa-Right Cheek): 55%
Ki67, marker of cell proliferation (overall) ([1]; patients, biopsy vs treated tumor): Consistent reductions in Ki67
Gene Ontology enrichment, upregulated biological processes ([2]; all three patients): upregulation in genes involved in promoting an immune-rich tumor microenvironment
genes downregulated post treatment ([2]; patient 1): 406 genes
genes upregulated post treatment ([2]; patient 1, |FC|<4 filter as printed, listed as Copaxone): 6355 genes
genes upregulated post treatment ([2]; patient 1, |FC|<4 filter as printed, listed as Copaxone®): 6,355 genes
genes downregulated post treatment ([2]; patient 2): 75 genes
genes upregulated post treatment ([2]; patient 2): 647 genes
genes downregulated post treatment ([2]; patient 3): 128 genes
genes upregulated post treatment ([2]; patient 3): 5375 genes
Gene Ontology enrichment, downregulated biological processes ([2]; three patients): No biological processes were consistently found to be downregulated post treatment
tumor growth [3]: no effect
number of animals alive on Day 45 (study termination) [4]: 0
tumor growth / tumor size [5]: significantly increased tumor growth; also recorded: increases tumor size
aggregation in the presence of hyaluronic acid (HA) [6]: form aggregates and precipitate in the presence of HA
retention of co-delivered immunostimulants at injection site [7]: retaining other HIT-IT such as CpG and PolyI: C at the intratumoral site of injection
